Measurements from patent US12305185B2, “Expression vector and method” (MOUNT SPEC I[…] LTD, priority 2018, dated 2025).

Tested on: aRPE-19 human retinal pigmented epithelial cell line
Test: Activation and deactivation of vector constructs containing luciferase (Nano-Glo luminescence assay)
Type: cell-based
Settings: luminescence on day 7
Protocol: ARPE-19 cells were seeded as described above. 12-24 hours later, cells were transfected with pAAV-LTetL-luc and pAAV-LCuL-luc. Media was replaced the next day and doxycycline or cumate was added to a subset of cells (FIG. 7). The media from the cells were assayed for the expression of marker gene, luciferase, using the Nano-Glo Luciferase assay on day 4 after having a media change on day 3. The Nano-Glow luciferase assay was performed as described above.
Following the luciferase assay, media was changed in all the wells. A subset of cells activated with doxycycline and cumate were washed to deactivate the vector.
A human retinal pigmented epithelial cell line (aRPE-19) was transfected with vector constructs containing Tet or Cu regulatory sequences driving the expression of the marker gene luciferase. Twenty-four hours later, the cells were treated with or without Tet or Cu and incubated for a further 48 hours before assessing the expression of luciferase. The ability of the system to stop expression of the transgene (Luciferase) was examined by removing the Tet or Cu from the cells by washing prior to re-examining Luciferase expression. Cells without Tet or Cu were used as a control as were cells where Tet or Cu was not removed.

CC(C)c1ccc(C(=O)O)cc1 [Cu, cumate]
luciferase expression on addition of regulator compound (aRPE-19 cells transfected with Tet or Cu regulated luciferase vector): able to induce significant levels of luciferase expression | luciferase expression after removal of regulator compound by washing (aRPE-19 cells, 3 days of washes): significantly less luciferase being detected
